Test results from US8357694B2, “Substituted 5,6-dihydro-6-phenylbenzo[F]isoquinolin-2-amine compounds” (ArQule, Inc., priority 2008, dated 2013).
Counter-ions that a name gives are not always drawn.

What was measured:
SNU-16 = test: MTS assay, SNU-16; assay type: cell-based; conditions: Homo sapiens, SNU-16, SNU-16; read-out: MTS cell kill data (IC50-μM) SNU-16
Method: Cells were maintained at 37° C., 5% CO2 in DMEM media supplemented with 1% fetal bovine serum, penicillin/streptomycin and fungizone (Invitrogen). Cells were seeded into 96-well tissue culture plates at 3000 per well and cultured at 37° C. for 18 hours. Test compounds were dissolved and diluted to 300× in DMSO then diluted 1:40 in DMEM.

FGFR2 kinase = target: T1, FGFR2 kinase (Homo sapiens, UniProt P21802, N549H); test: fluorescent ELISA FGFR2 kinase assay (biochemical); conditions: FGFR2 (N549H); read-out: Biochemical data (IC50-μM) FGFR2 (N549H)
T1 construct: purchased Millipore 14-742
T1 sequence (P21802 456-770 N549H limits assumed): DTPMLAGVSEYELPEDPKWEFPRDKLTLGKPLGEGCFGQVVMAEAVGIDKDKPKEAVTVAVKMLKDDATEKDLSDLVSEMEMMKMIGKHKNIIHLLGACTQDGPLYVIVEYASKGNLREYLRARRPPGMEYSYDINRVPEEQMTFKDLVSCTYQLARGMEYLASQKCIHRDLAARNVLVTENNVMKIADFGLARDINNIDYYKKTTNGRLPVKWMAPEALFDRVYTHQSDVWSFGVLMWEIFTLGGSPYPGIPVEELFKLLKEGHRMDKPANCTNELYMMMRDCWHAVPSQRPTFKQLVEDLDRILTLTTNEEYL
Method: The enzymatic assays described herein are conducted according to the following procedures from commercially available reagents. In one, non limiting, example, a fluorescent ELISA assay is used to identify and characterize inhibitors of FGFR2 kinase as described herein. This heterogeneous assay utilizes a biotinylated peptide with a tyrosine motif as a substrate and an anti-phospho-tyrosine antibody to measure phosphorylation of the substrate. […] The reaction is incubated for 60 minutes. As the reaction proceeds, FGFR2 phosphorylates tyrosines in the peptide. […] Peptides are captured for 30 minutes at room temperature, the phosphorylation of peptides continues during this phase. The reaction is stopped by washing the streptavidin-coated plate 6 times with TBST. […] Unbound anti-phospho-tyrosine antibody is removed by washing the streptavidin-coated plate 6 times with TBST. […] Unbound secondary antibody is removed by washing the streptavidin-coated plate 6 times with TBST.

SMILES | IC50 (SNU-16) [µM] | IC50 (FGFR2 kinase) [µM] | melting point [°C]
COCCN1CCN(CCc2ccc(Nc3ncc4c(n3)-c3ccccc3[C@H](c3cccc(Br)c3)C4)cc2)CC1 [Example 77, (S)-6-(3-bromophenyl)-N-(4-(2-(4-(2-methoxyethyl)piperazin-1-yl)ethyl)phenyl)-5,6-dihydrobenzo[h]quinazolin-2-amine hydrochloride] | 4.47 | 0.118 | 
CN(CCc1ccc(Nc2ncc3c(n2)-c2ccccc2[C@H](c2ccc(F)c(F)c2)C3)cc1)C1CCCCC1 [Example 85, (S)-N-(4-(2-(cyclohexyl(methyl)amino)ethyl)phenyl)-6-(3,4-difluorophenyl)-5,6-dihydrobenzo[h]quinazolin-2-amine hydrochloride] | 3.88 |  | 
COCCNCCc1ccc(Nc2ncc3c(n2)-c2ccccc2[C@H](c2ccc(F)c(F)c2)C3)cc1 [Example 86, (S)-6-(3,4-difluorophenyl)-N-(4-(2-(2-methoxyethylamino)ethyl)phenyl)-5,6-dihydrobenzo[h]quinazolin-2-amine hydrochloride] | 5.13 | 0.267 | 
CN(C)CCc1ccc(Nc2ncc3c(n2)-c2ccccc2[C@H](c2ccc(F)c(F)c2)C3)cc1 [Example 87, (S)-6-(3,4-difluorophenyl)-N-(4-(2-(dimethylamino)ethyl)phenyl)-5,6-dihydrobenzo[h]quinazolin-2-amine hydrochloride] | 7.78 |  | 
CN1CCN(CCc2ccc(Nc3ncc4c(n3)-c3ccccc3[C@H](c3ccc(F)c(F)c3)C4)cc2)CC1 [Example 88, (S)-6-(3,4-difluorophenyl)-N-(4-(2-(4-methylpiperazin-1-yl)ethyl)phenyl)-5,6-dihydrobenzo[h]quinazolin-2-amine hydrochloride] | 9.86 |  | 
COCCN1CCN(CCc2ccc(Nc3ncc4c(n3)-c3ccccc3[C@@H](c3ccc(F)c(F)c3)C4)cc2)CC1 [Example 90, (R)-6-(3,4-difluorophenyl)-N-(4-(2-(4-(2-methoxyethyl)piperazin-1-yl)ethyl)phenyl)-5,6-dihydrobenzo[h]quinazolin-2-amine hydrochloride] | 14.6 |  | 
Fc1ccc([C@H]2Cc3cnc(Nc4ccc(CCN5CCCCC5)cc4)nc3-c3ccccc32)cc1F [Example 91, (R)-6-(3,4-difluorophenyl)-N-(4-(2-(piperidin-1-yl)ethyl)phenyl)-5,6-dihydrobenzo[h]quinazolin-2-amine hydrochloride] | 6.32 |  | 
CN(CCc1ccccc1)CCc1ccc(Nc2ncc3c(n2)-c2ccccc2[C@H](c2ccccc2F)C3)cc1 [Example 93, (R)-6-(2-fluorophenyl)-N-(4-(2-(methyl(phenethyl)amino)ethyl)phenyl)-5,6-dihydrobenzo[h]quinazolin-2-amine hydrochloride salt] | 3.25 | 0.296 | 
COCCNCCc1ccc(Nc2ncc3c(n2)-c2ccccc2[C@H](c2ccccc2F)C3)cc1 [Example 94, (R)-6-(2-fluorophenyl)-N-(4-(2-(2-methoxyethylamino)ethyl)phenyl)-5,6-dihydrobenzo[h]quinazolin-2-amine hydrochloride salt] | 0.895 | 0.00999 | 
CN(CCc1ccc(Nc2ncc3c(n2)-c2ccccc2[C@H](c2ccccc2F)C3)cc1)C1CCCCC1 [Example 95, (R)-N-(4-(2-(cyclohexyl(methyl)amino)ethyl)phenyl)-6-(2-fluorophenyl)-5,6-dihydrobenzo[h]quinazolin-2-amine] | 1.13 | 0.24 | 
COCCN1CCN(CCc2ccc(Nc3ncc4c(n3)-c3ccccc3[C@H](c3ccc(Br)cc3)C4)cc2)CC1 [Example 97, (S)-6-(4-bromophenyl)-N-(4-(2-(4-(2-methoxyethyl)piperazin-1-yl)ethyl)phenyl)-5,6-dihydrobenzo[h]quinazolin-2-amine hydrochloride salt] | 4.2 |  | 
CCCCN(C)CCc1ccc(Nc2ncc3c(n2)-c2ccccc2[C@H](c2ccc(F)cc2)C3)cc1 [Example 99, (S)-N-(4-(2-(butyl(methyl)amino)ethyl)phenyl)-6-(4-fluorophenyl)-5,6-dihydrobenzo[h]quinazolin-2-amine] | 6.16 |  | 
COCCN1CCN(CCc2ccc(Nc3ncc4c(n3)-c3ccccc3[C@H](c3ccc(F)cc3)C4)cc2)CC1 [Example 100, (S)-6-(4-fluorophenyl)-N-(4-(2-(4-(2-methoxyethyl)piperazin-1-yl)ethyl)phenyl)-5,6-dihydrobenzo[h]quinazolin-2-amine] | 7.36 |  | 195 to 198
Fc1ccc([C@@H]2Cc3cnc(Nc4ccc(CCN5CCCCC5)cc4)nc3-c3ccccc32)cc1 [Example 101, (S)-6-(4-fluorophenyl)-N-(4-(2-(piperidin-1-yl)ethyl)phenyl)-5,6-dihydrobenzo[h]quinazolin-2-amine] | 4.03 | 0.177 | 185 to 188
CN(CCc1ccc(Nc2ncc3c(n2)-c2ccccc2[C@H](c2ccc(F)cc2)C3)cc1)C1CCCCC1 [Example 102, (S)-N-(4-(2-(cyclohexyl(methyl)amino)ethyl)phenyl)-6-(4-fluorophenyl)-5,6-dihydrobenzo[h]quinazolin-2-amine] | 3.22 | 0.26 | 
Brc1ccc([C@@H]2Cc3cnc(Nc4ccc(CCN5CCCCC5)cc4)nc3-c3ccccc32)cc1 [Example 103, (S)-6-(4-bromophenyl)-N-(4-(2-(piperidin-1-yl)ethyl)phenyl)-5,6-dihydrobenzo[h]quinazolin-2-amine hydrochloride salt] | 3.57 | 0.178 | 
CCCCN(C)CCc1ccc(Nc2ncc3c(n2)-c2ccccc2[C@H](c2ccc(Cl)c(Cl)c2)C3)cc1 [Example 105, (S)-N-(4-(2-(butyl(methyl)amino)ethyl)phenyl)-6-(3,4-dichlorophenyl)-5,6-dihydrobenzo[h]quinazolin-2-amine hydrochloride salt] | 5.03 | 0.499 | 
CN(CCc1ccc(Nc2ncc3c(n2)-c2ccccc2[C@H](c2ccc(Cl)c(Cl)c2)C3)cc1)C1CCCCC1 [Example 106, (S)-N-(4-(2-(cyclohexyl(methyl)amino)ethyl)phenyl)-6-(3,4-dichlorophenyl)-5,6-dihydrobenzo[h]quinazolin-2-amine hydrochloride salt] | 3.05 |  | 
CCCCN(C)CCc1ccc(Nc2ncc3c(n2)-c2ccccc2[C@@H](c2ccc(Br)cc2)C3)cc1 [Example 107, (R)-6-(4-bromophenyl)-N-(4-(2-(butyl(methyl)amino)ethyl)phenyl)-5,6-dihydrobenzo[h]quinazolin-2-amine hydrochloride salt] |  | 0.423 | 
Brc1ccc([C@H]2Cc3cnc(Nc4ccc(CCN5CCCCC5)cc4)nc3-c3ccccc32)cc1 [Example 108, (R)-6-(4-bromophenyl)-N-(4-(2-(piperidin-1-yl)ethyl)phenyl)-5,6-dihydrobenzo[h]quinazolin-2-amine hydrochloride salt] |  | 0.354 | 
COCCN1CCN(CCc2ccc(Nc3ncc4c(n3)-c3ccccc3[C@H](c3ccc(Cl)c(Cl)c3)C4)cc2)CC1 [Example 115, (S)-6-(3,4-dichlorophenyl)-N-(4-(2-(4-(2-methoxyethyl)piperazin-1-yl)ethyl)phenyl)-5,6-dihydrobenzo[h]quinazolin-2-amine hydrochloride] | 3.03 | 0.211 | 
Clc1ccc([C@@H]2Cc3cnc(Nc4cccc(CCN5CCCCC5)c4)nc3-c3ccccc32)cc1Cl [Example 167, (S)-6-(3,4-dichlorophenyl)-N-(3-(2-(piperidin-1-yl)ethyl)phenyl)-5,6-dihydrobenzo[h]quinazolin-2-amine hydrochloride] | 4.21 |  | 
OCCc1cc(Nc2ncc3c(n2)-c2ccccc2[C@H](c2ccccc2F)C3)ccc1F [Example 169] |  | 0.327 | 
CCCCNCCc1cc(Nc2ncc3c(n2)-c2ccccc2[C@H](c2ccccc2F)C3)ccc1F [Example 171, (R)-N-(3-(2-(butylamino)ethyl)-4-fluorophenyl)-6-(2-fluorophenyl)-5,6-dihydrobenzo[h]quinazolin-2-amine hydrochloride salt] |  | 0.0355 | 
CCCCN(C)CCc1cc(Nc2ncc3c(n2)-c2ccccc2[C@H](c2ccccc2F)C3)ccc1F [Example 172, (R)-N-(3-(2-(butyl(methyl)amino)ethyl)-4-fluorophenyl)-6-(2-fluorophenyl)-5,6-dihydrobenzo[h]quinazolin-2-amine hydrochloride salt] |  | 0.0922 | 
COCCNCCc1cc(Nc2ncc3c(n2)-c2ccccc2[C@H](c2ccccc2F)C3)ccc1F [Example 173, (R)-N-(4-fluoro-3-(2-(2-methoxyethylamino)ethyl)phenyl)-6-(2-fluorophenyl)-5,6-dihydrobenzo[h]quinazolin-2-amine hydrochloride salt] | 0.519 | 0.0359 | 
OCc1cccc(Nc2ncc3c(n2)-c2ccccc2[C@H](c2ccccc2F)C3)c1 [Example 176, (R)-(3-(6-(2-fluorophenyl)-5,6-dihydrobenzo[h]quinazolin-2-ylamino)phenyl)methanol] |  | 0.109 | 158 to 159
